Where a name gives a salt, the structure may show the parent alone.
Each compound was assayed against T1, Human CCR3 (Homo sapiens, UniProt P51677) (assay: Calcium mobilization assay, eotaxin-stimulated). Conditions: human CCR3-transformed K562 cells, 10 nM eotaxin; compounds of about 40 to 90% purity; read-out: Activity grade Ca2+ (IC50 class).
T1 construct: The cloned CCR3 cDNA was constructed with pcDNA3 vector and transfected into a IC562 cell line; expressed in transfected cells
T1 sequence (P51677 1-355): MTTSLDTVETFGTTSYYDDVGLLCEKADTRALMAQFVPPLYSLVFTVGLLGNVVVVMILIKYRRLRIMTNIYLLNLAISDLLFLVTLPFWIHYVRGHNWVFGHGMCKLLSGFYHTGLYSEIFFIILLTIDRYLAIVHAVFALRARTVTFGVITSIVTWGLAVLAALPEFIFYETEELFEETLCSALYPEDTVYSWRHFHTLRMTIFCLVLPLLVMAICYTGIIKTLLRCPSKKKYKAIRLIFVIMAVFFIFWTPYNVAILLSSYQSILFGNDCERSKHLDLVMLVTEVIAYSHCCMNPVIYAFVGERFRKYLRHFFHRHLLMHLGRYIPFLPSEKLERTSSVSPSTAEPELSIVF
Assay type: cell-based
Method in brief: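 K562 cells transfected with human CCR3, pretreated 20–24 h with 5 mM sodium butyrate, loaded with Fluo-3AM. Compound added 10 min before stimulation with 10 nM (final) eotaxin; cytoplasmic calcium read over 60 s by FDSS, IC50 from inhibition curve.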

Row | IC50 | Compound
1 | > 10000 nM | Cc1cc(C)cc(Oc2ccc([N+](=O)[O-])cc2S(=O)(=O)N2CCN(C(=O)OC(C)(C)C)CC2)c1 [Example 1-1, tert-butyl 4-{[2-(3,5-dimethylphenoxy)-5-nitrophenyl]sulfonyl}-1-piperazinecarboxylate]
2 | < 1000 nM | Cc1cc(C)cc(Oc2ccc([N+](=O)[O-])cc2S(=O)(=O)N2CCNCC2)c1 [Example 1-2, 1-{[2-(3,5-dimethylphenoxy)-5-nitrophenyl]sulfonyl}piperazine hydrochloride]
3 | > 10000 nM | COc1cc(OC)cc(Oc2ccc([N+](=O)[O-])cc2S(=O)(=O)N2CCNCC2)c1.Cl [Example 1-5]
4 | < 1000 nM | Cc1cc(Oc2ccc([N+](=O)[O-])cc2S(=O)(=O)N2CCNCC2)cc(C(C)C)c1.Cl [Example 1-8]
5 | < 1000 nM | CC(C)c1cccc(Oc2ccc([N+](=O)[O-])cc2S(=O)(=O)N2CCNCC2)c1.Cl [Example 1-9]
6 | 1000 to 10000 nM | Cl.N#Cc1cccc(Oc2ccc([N+](=O)[O-])cc2S(=O)(=O)N2CCNCC2)c1 [Example 1-10]
7 | < 1000 nM | Cl.O=[N+]([O-])c1ccc(Oc2cccc3ccccc23)c(S(=O)(=O)N2CCNCC2)c1 [Example 1-11]
8 | 1000 to 10000 nM | Cc1ccccc1Oc1ccc([N+](=O)[O-])cc1S(=O)(=O)N1CCNCC1.Cl [Example 1-12]
9 | > 10000 nM | COc1ccc(Oc2ccc([N+](=O)[O-])cc2S(=O)(=O)N2CCNCC2)cc1 [Example 1-19]
10 | > 10000 nM | O=[N+]([O-])c1ccc(Oc2ccc(F)cc2)c(S(=O)(=O)N2CCNCC2)c1 [Example 1-20]
11 | < 1000 nM | O=[N+]([O-])c1ccc(Oc2cccc(F)c2)c(S(=O)(=O)N2CCNCC2)c1 [Example 1-25]
12 | < 1000 nM | COc1ccccc1Oc1ccc([N+](=O)[O-])cc1S(=O)(=O)N1CCNCC1.Cl [Example 1-27]
13 | < 1000 nM | Cl.O=[N+]([O-])c1ccc(Oc2ccccc2Cl)c(S(=O)(=O)N2CCNCC2)c1 [Example 1-28]
14 | 1000 to 10000 nM | N#Cc1ccccc1Oc1ccc([N+](=O)[O-])cc1S(=O)(=O)N1CCNCC1 [Example 1-29]
15 | 1000 to 10000 nM | CN(C)c1cccc(Oc2ccc([N+](=O)[O-])cc2S(=O)(=O)N2CCNCC2)c1.Cl [Example 1-32]
16 | < 1000 nM | CC(C)(C)c1cccc(Oc2ccc([N+](=O)[O-])cc2S(=O)(=O)N2CCNCC2)c1.Cl [Example 1-36]
17 | < 1000 nM | COc1cc(C)cc(Oc2ccc([N+](=O)[O-])cc2S(=O)(=O)N2CCNCC2)c1.Cl [Example 1-37]
18 | < 1000 nM | Cc1cc(C)cc(Oc2ccc(C(F)(F)F)cc2S(=O)(=O)N2CCNCC2)c1.Cl [Example 1-43]
19 | 1000 to 10000 nM | Cc1cc(C)cc(Oc2cc(C)c([N+](=O)[O-])cc2S(=O)(=O)N2CCNCC2)c1.Cl [Example 1-44]
20 | > 10000 nM | COc1cc(Oc2cc(C)cc(C)c2)c(S(=O)(=O)N2CCNCC2)cc1[N+](=O)[O-].Cl [Example 1-47]
21 | < 1000 nM | Cl.O=S(=O)(c1cc(Br)ccc1Oc1cc(Cl)cc(Cl)c1)N1CCNCC1 [Example 1-57]
22 | < 1000 nM | Cc1ccc(Oc2ccc([N+](=O)[O-])cc2S(=O)(=O)N2CCNCC2)cc1C.Cl [Example 1-63]
23 | < 1000 nM | Cc1ccc(C)c(Oc2ccc([N+](=O)[O-])cc2S(=O)(=O)N2CCNCC2)c1.Cl [Example 1-64]
24 | < 1000 nM | Cc1cc(C)c(C)c(Oc2ccc([N+](=O)[O-])cc2S(=O)(=O)N2CCNCC2)c1.Cl [Example 1-65]
25 | 1000 to 10000 nM | Cc1ccc(C(C)C)c(Oc2ccc([N+](=O)[O-])cc2S(=O)(=O)N2CCNCC2)c1.Cl [Example 1-66]

Continued, compound first:

Row | Compound | IC50
26 | Cl.O=[N+]([O-])c1ccc(Oc2cc(F)cc(F)c2)c(S(=O)(=O)N2CCNCC2)c1 [Example 1-4] | < 1000 nM
27 | Cl.O=[N+]([O-])c1ccc(Oc2cc(C(F)(F)F)cc(C(F)(F)F)c2)c(S(=O)(=O)N2CCNCC2)c1 [Example 1-6] | < 1000 nM
28 | CC(C)(C)c1cc(Oc2ccc([N+](=O)[O-])cc2S(=O)(=O)N2CCNCC2)cc(C(C)(C)C)c1.Cl [Example 1-7] | > 10000 nM
29 | Cl.Cl.Cl.Nc1ccc(Oc2ccc([N+](=O)[O-])cc2S(=O)(=O)N2CCNCC2)cc1 [Example 1-13] | > 10000 nM
30 | O=[N+]([O-])c1ccc(Oc2ccccc2)c(S(=O)(=O)N2CCNCC2)c1 [Example 1-18] | 1000 to 10000 nM
31 | CC(C)(C)c1ccc(Oc2ccc([N+](=O)[O-])cc2S(=O)(=O)N2CCNCC2)cc1 [Example 1-21] | > 10000 nM
32 | O=[N+]([O-])c1ccc(Oc2ccc(Cl)cc2)c(S(=O)(=O)N2CCNCC2)c1 [Example 1-22] | > 10000 nM
33 | CC(=O)c1ccccc1Oc1ccc([N+](=O)[O-])cc1S(=O)(=O)N1CCNCC1.Cl [Example 1-30] | > 10000 nM
34 | CC(=O)c1cccc(Oc2ccc([N+](=O)[O-])cc2S(=O)(=O)N2CCNCC2)c1.Cl [Example 1-31] | > 10000 nM
35 | Cl.O=[N+]([O-])c1ccc(Oc2cc(Cl)cc(Cl)c2)c(S(=O)(=O)N2CCNCC2)c1 [Example 1-33] | < 1000 nM
36 | Cl.O=[N+]([O-])c1ccc(Oc2cccc(C(F)(F)F)c2)c(S(=O)(=O)N2CCNCC2)c1 [Example 1-34] | < 1000 nM
37 | Cc1cc(C)cc(Oc2ccc(S(C)(=O)=O)cc2S(=O)(=O)N2CCNCC2)c1.Cl [Example 1-35] | < 1000 nM
38 | Cl.O=[N+]([O-])c1cccc(Oc2ccc([N+](=O)[O-])cc2S(=O)(=O)N2CCNCC2)c1 [Example 1-38] | < 1000 nM
39 | Cl.O=[N+]([O-])c1ccc(Oc2cccc(Br)c2)c(S(=O)(=O)N2CCNCC2)c1 [Example 1-39] | < 1000 nM
40 | CCCCc1ccccc1Oc1ccc([N+](=O)[O-])cc1S(=O)(=O)N1CCNCC1.Cl [Example 1-40] | < 1000 nM
41 | Cc1cc(C)cc(Oc2ccccc2S(=O)(=O)N2CCNCC2)c1.Cl [Example 1-41] | 1000 to 10000 nM
42 | Cc1cc(C)cc(Oc2ccc(C(=O)N3CCNCC3)cc2S(=O)(=O)N2CCNCC2)c1.Cl.Cl [Example 1-42] | > 10000 nM
43 | Cc1cc(Oc2cc(Cl)cc(Cl)c2)c(S(=O)(=O)N2CCNCC2)cc1[N+](=O)[O-].Cl [Example 1-45] | < 1000 nM
44 | Cc1cc(C)cc(Oc2cc(C(F)(F)F)ccc2S(=O)(=O)N2CCNCC2)c1.Cl [Example 1-46] | > 10000 nM
45 | O=[N+]([O-])c1ccc(Oc2cc(Cl)cc(Cl)c2)c(S(=O)(=O)N2CC3CCCNC3C2)c1 (centres unmarked) [Example 1-48] | < 1000 nM
46 | Cl.O=S(=O)(c1cc(F)ccc1Oc1cc(Cl)cc(Cl)c1)N1CCNCC1 [Example 1-51] | < 1000 nM
47 | Cc1cc(C)cc(Oc2ccc([N+](=O)[O-])cc2S(=O)(=O)N2CC(C)NCC2C)c1.Cl (centres unmarked) [Example 1-54] | < 1000 nM
48 | Cl.O=S(=O)(c1cc(Cl)ccc1Oc1cc(Cl)cc(Cl)c1)N1CCNCC1 [Example 1-56] | < 1000 nM
49 | Cc1cc(Oc2ccc([N+](=O)[O-])cc2S(=O)(=O)N2CCNCC2)ccc1Cl.Cl [Example 1-60] | 1000 to 10000 nM
50 | Cc1ccc(C)c(Oc2ccc([N+](=O)[O-])cc2S(=O)(=O)N2CCNCC2)c1C.Cl [Example 1-61] | 1000 to 10000 nM
51 | Cc1cccc(Oc2ccc([N+](=O)[O-])cc2S(=O)(=O)N2CCNCC2)c1C.Cl [Example 1-62] | < 1000 nM
52 | Cl.O=[N+]([O-])c1ccc(Oc2c(F)c(F)cc(F)c2F)c(S(=O)(=O)N2CCNCC2)c1 [Example 1-74] | < 1000 nM
53 | O=[N+]([O-])c1ccc(Oc2cc(Br)cc(Br)c2)c(S(=O)(=O)N2CCNCC2)c1 [Example 1-76] | < 1000 nM

Reference: US8242118B2, “Arylsulfonamide derivatives for use as CCR3 antagonists in the treatment of inflammatory and immunological disorders” (Axikin Pharmaceuticals Inc., priority 2001, dated 2012)
